Read-outs that look alike come from different tables or passages of the source.
Key:
[1] = biological target: K-Ras^G12C : hSOS1 interaction (Homo sapiens, UniProt Q07889); assay: Biochemical assay 1: K-Ras^G12C interaction assay with hSOS1 (HTRF); assay type: binding; details: read-out: Assay 1 (KRAS-SOS Interaction) activity expressed as IC50
[2] = biological target: Epidermal Growth Factor Receptor (EGFR) (Homo sapiens (Human), UniProt P00533); assay: EGFR kinase assay (TR-FRET); assay type: biochemical; details: read-out: EGFR kinase inhibition IC50
Sequence of Epidermal Growth Factor Receptor (EGFR) (P00533 25-1210): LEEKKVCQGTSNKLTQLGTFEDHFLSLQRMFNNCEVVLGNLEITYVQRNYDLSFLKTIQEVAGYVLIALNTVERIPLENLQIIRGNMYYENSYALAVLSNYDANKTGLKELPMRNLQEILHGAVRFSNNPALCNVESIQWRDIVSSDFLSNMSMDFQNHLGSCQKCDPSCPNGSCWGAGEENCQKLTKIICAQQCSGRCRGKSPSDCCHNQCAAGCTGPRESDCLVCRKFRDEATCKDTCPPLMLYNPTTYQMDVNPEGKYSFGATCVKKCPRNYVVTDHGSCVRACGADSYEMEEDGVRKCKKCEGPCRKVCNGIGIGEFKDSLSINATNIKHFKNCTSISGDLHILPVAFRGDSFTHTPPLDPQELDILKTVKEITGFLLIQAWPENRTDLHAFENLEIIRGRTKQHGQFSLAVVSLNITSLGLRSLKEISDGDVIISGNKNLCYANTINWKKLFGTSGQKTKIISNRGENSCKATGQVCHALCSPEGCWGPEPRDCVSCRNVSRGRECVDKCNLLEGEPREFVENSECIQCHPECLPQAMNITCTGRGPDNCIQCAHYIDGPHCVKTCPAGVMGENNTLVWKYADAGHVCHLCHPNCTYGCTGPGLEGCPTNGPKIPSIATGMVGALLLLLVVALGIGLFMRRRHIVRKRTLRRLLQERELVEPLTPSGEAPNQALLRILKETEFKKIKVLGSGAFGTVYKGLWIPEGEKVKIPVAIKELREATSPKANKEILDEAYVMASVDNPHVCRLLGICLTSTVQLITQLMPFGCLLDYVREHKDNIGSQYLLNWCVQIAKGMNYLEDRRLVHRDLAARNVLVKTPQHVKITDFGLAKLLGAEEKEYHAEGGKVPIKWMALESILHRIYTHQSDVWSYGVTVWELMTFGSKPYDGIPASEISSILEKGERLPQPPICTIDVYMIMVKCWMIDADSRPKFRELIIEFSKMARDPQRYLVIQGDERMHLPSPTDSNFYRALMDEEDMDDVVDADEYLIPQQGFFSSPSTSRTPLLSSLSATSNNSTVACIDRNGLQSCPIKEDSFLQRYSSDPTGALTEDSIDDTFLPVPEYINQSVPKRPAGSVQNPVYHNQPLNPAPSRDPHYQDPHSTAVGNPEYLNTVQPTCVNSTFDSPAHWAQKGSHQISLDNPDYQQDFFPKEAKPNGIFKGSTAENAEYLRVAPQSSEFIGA
How it was run: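 EGFR purified from A431 cells was preincubated with compound 15 min at 22° C in pH 7.0 Hepes buffer with MgCl2, MnCl2 and vanadate before reaction with a biotinylated peptide. After EDTA stop, phosphopeptide was detected by TR-FRET (anti-phosphotyrosine Tb-cryptate, streptavidin-XL665) as the 665/620 nm emission ratio.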

SMILES | IC50 [1] [nM] | IC50 ([2]; values given in μM) [µM] | IC50 ([2]; unit inferred) [µM]
COc1cc2nc(C)nc(N[C@H](C)c3ccc(-c4ccccc4CCN)s3)c2cc1OC (stereo in doubt) [Example 357, N-[1-{5-[2-(2-aminoethyl)phenyl]thiophen-2-yl}ethyl]-6,7-dimethoxy-2-methylquinazolin-4-amine] | 51.2 | > 20 | –
COc1cc2nc(C)nc(NC(C)c3ccc(-c4ccccc4[C@@H](C)NC(=O)OC(C)(C)C)s3)c2cc1OC (stereo in doubt) [Example 358, tert-butyl {1-[2-(5-{1-[(6,7-dimethoxy-2-methylquinazolin-4-yl)amino]ethyl}thiophen-2-yl)phenyl]ethyl}carbamate] | 1440 | > 20 | –
COc1cc2nc(C)nc(NC(C)c3ccc(-c4ccccc4[C@@H](C)N)s3)c2cc1OC (stereo in doubt) [Example 359, N-[1-(5-{2-[1-aminoethyl]phenyl}thiophen-2-yl)ethyl]-6,7-dimethoxy-2-methylquinazolin-4-amine] | 234 | > 20 | –
COc1cc2nc(C)nc(NC(C)c3ccc(-c4ccccc4[C@H](C)N)s3)c2cc1OC (stereo in doubt) [Example 360, N-[1-(5-{2-[1-aminoethyl]phenyl}thiophen-2-yl)ethyl]-6,7-dimethoxy-2-methylquinazolin-4-amine] | 195 | > 20 | –
COc1cc2nc(C)nc(NC(C)c3cccc4c3CCO4)c2cc1OC (stereo not drawn) [Example 22, N-[1-(2,3-dihydro-1-benzofuran-4-yl)ethyl]-6,7-dimethoxy-2-methylquinazolin-4-amine] | 177 | > 20 | –
COc1cc2nc(C)nc(NC(C)c3ccc4c(c3)OCO4)c2cc1OC (stereo not drawn) [Example 23, N-[1-(1,3-benzodioxol-5-yl)ethyl]-6,7-dimethoxy-2-methylquinazolin-4-amine] | 2720 | > 20 | –
COc1cc2nc(C)nc(NC(C)c3ccc4c(c3)CCO4)c2cc1OC (stereo not drawn) [Example 24, N-[1-(2,3-dihydro-1-benzofuran-5-yl)ethyl]-6,7-dimethoxy-2-methylquinazolin-4-amine] | 701 | > 20 | –
COc1cc2nc(C)nc(NC(C)c3ccc4c(c3)CCCC4)c2cc1OC (stereo not drawn) [Example 25, 6,7-dimethoxy-2-methyl-N-[1-(5,6,7,8-tetrahydronaphthalen-2-yl)ethyl]quinazolin-4-amine] | 541 | > 20 | –
COc1cc2nc(C)nc(NC(C)c3c(C)nc4ccccn34)c2cc1OC (stereo not drawn) [Example 26, 6,7-dimethoxy-2-methyl-N-[1-(2-methylimidazo[1,2-a]pyridin-3-yl)ethyl]quinazolin-4-amine] | 9550 | > 20 | –
COc1cc2nc(C)nc(NC(C)c3csc4ccccc34)c2cc1OC (stereo not drawn) [Example 27, N-[1-(1-benzothiophen-3-yl)ethyl]-6,7-dimethoxy-2-methylquinazolin-4-amine] | 368 | > 20 | –
Cc1nc(N[C@H](C)c2ccccc2)c2cc(N=S(C)(C)=O)ccc2n1 [Example 30, 6-{[dimethyl(oxido)-lambda6-sulfanylidene]amino}-2-methyl-N-[(1R)-1-phenylethyl]quinazolin-4-amine] | 1340 | > 20 | –
Cc1nc(N[C@H](C)c2ccc(F)cc2)c2cc(N=S(C)(C)=O)ccc2n1 [Example 32, 6-{[dimethyl(oxido)-lambda6-sulfanylidene]amino}-N-[(1R)-1-(4-fluorophenyl)ethyl]-2-methylquinazolin-4-amine] | 1070 | > 20 | –
COc1cc2nc(C)nc(NC(C)c3ccc4c(c3)NC(=O)CO4)c2cc1OC (stereo not drawn) [Example 34, 6-{1-[(6,7-dimethoxy-2-methylquinazolin-4-yl)amino]ethyl}-2H-1,4-benzoxazin-3(4H)-one] | 4230 | > 20 | –
COc1ccc2cc(C(C)Nc3nc(C)nc4cc(OC)c(OC)cc34)ccc2c1 (stereo not drawn) [Example 35, 6,7-dimethoxy-N-[1-(6-methoxy-2-naphthyl)ethyl]-2-methylquinazolin-4-amine] | 4720 | > 20 | –
COc1cc2nc(C)nc(N[C@H](C)c3cccc(-c4ccc(O)nc4)c3)c2cc1OC [Example 68, 5-(3-{(1R)-1-[(6,7-dimethoxy-2-methylquinazolin-4-yl)amino]ethyl}phenyl)pyridin-2-ol] | 137 | – | 6.92
COc1cc2nc(C)nc(N[C@H](C)c3cccc(-n4cccn4)c3)c2cc1OC [Example 341, 6,7-dimethoxy-2-methyl-N-{(1R)-1-[3-(1H-pyrazol-1-yl)phenyl]ethyl}quinazolin-4-amine] | 2830 | > 20 | –
COc1cc2nc(C)nc(N[C@H](C)c3cccc(Br)c3)c2cc1OCc1ccccc1 [Example 343, 6-(benzyloxy)-N-[(1R)-1-(3-bromophenyl)ethyl]-7-methoxy-2-methylquinazolin-4-amine] | 1680 | > 20 | –

SMILES | IC50 [1] [nM] | IC50 ([2]; values given in μM) [µM] | IC50 ([2]; unit inferred) [µM]
COc1cc2nc(C)nc(N[C@H](C)c3cccc(-c4cn[nH]c4)c3)c2cc1OCc1ccccc1 [Example 344, 6-(benzyloxy)-7-methoxy-2-methyl-N-{(1R)-1-[3-(1H-pyrazol-4-yl)phenyl]ethyl}-quinazolin-4-amine] | 931 | > 20 | –
COc1cc2nc(C)nc(N[C@H](C)c3cccc(-c4cn[nH]c4)c3)c2cc1O [Example 345, 7-methoxy-2-methyl-4-({(1R)-1-[3-(1H-pyrazol-4-yl)phenyl]ethyl}amino)quinazolin-6-ol] | 14600 | > 20 | –
COc1cc2nc(C)nc(N[C@H](C)c3cccc(-c4cn[nH]c4)c3)c2cc1OCC1CC1 [Example 346, 6-(cyclopropylmethoxy)-7-methoxy-2-methyl-N-{(1R)-1-[3-(1H-pyrazol-4-yl)phenyl]ethyl}quinazolin-4-amine] | 342 | > 20 | –
COCCOc1cc2c(N[C@H](C)c3cccc(-c4cn[nH]c4)c3)nc(C)nc2cc1OC [Example 348, 7-methoxy-6-(2-methoxyethoxy)-2-methyl-N-{(1R)-1-[3-(1H-pyrazol-4-yl)phenyl]-ethyl}quinazolin-4-amine] | 693 | > 20 | –
CC[C@@H](O)c1ccccc1-c1ccc(C(C)Nc2nc(C)nc3cc(OC)c(OC)cc23)s1 (stereo partly drawn) [Example 349, (1R)-1-[2-(5-{1-[(6,7-dimethoxy-2-methylquinazolin-4-yl)amino]ethyl}thiophen-2-yl)phenyl]propan-1-ol] | 231 | > 20 | –
CCCCOc1cc2c(N[C@H](C)c3cccc(-c4cn[nH]c4)c3)nc(C)nc2cc1OC [Example 350, 6-butoxy-7-methoxy-2-methyl-N-{(1R)-1-[3-(1H-pyrazol-4-yl)phenyl]ethyl}quinazolin-4-amine] | 688 | > 20 | –
COc1cc2nc(C)nc(N[C@H](C)c3cccc(-c4cn[nH]c4)c3)c2cc1OCCC(C)C [Example 351, 7-methoxy-2-methyl-6-(3-methylbutoxy)-N-{(1R)-1-[3-(1H-pyrazol-4-yl)phenyl]ethyl}quinazolin-4-amine] | 1710 | > 20 | –
COc1cc2nc(C)nc(NC(C)c3ccc(-c4ccccc4CCNC(=O)OC(C)(C)C)s3)c2cc1OC (stereo not drawn) [Example 352, tert-butyl {2-[2-(5-{1-[(6,7-dimethoxy-2-methylquinazolin-4-yl)amino]ethyl}thiophen-2-yl)phenyl]ethyl}carbamate] | 16000 | > 20 | –
COc1cc2nc(C)nc(N[C@H](C)c3cccc(-c4cn[nH]c4)c3)c2cc1OC(C)C [Example 353, 7-methoxy-2-methyl-6-(propan-2-yloxy)-N-{(1R)-1-[3-(1H-pyrazol-4-yl)phenyl]ethyl}quinazolin-4-amine] | 360 | > 20 | –
COc1cc2nc(C)nc(N[C@H](C)c3cccc(-c4cn[nH]c4)c3)c2cc1OCC1COC1 [Example 354, 7-methoxy-2-methyl-6-(oxetan-3-ylmethoxy)-N-{(1R)-1-[3-(1H-pyrazol-4-yl)phenyl]ethyl}quinazolin-4-amine] | 313 | > 20 | –
CCOc1cc2c(N[C@H](C)c3cccc(-c4cn[nH]c4)c3)nc(C)nc2cc1OC [Example 355, 6-Ethoxy-7-methoxy-2-methyl-N-{(1R)-1-[3-(1H-pyrazol-4-yl)phenyl]ethyl}-quinazolin-4-amine] | 485 | > 20 | –
CCOc1cc2c(N[C@H](C)c3cccc(-c4cnn(CC)c4)c3)nc(C)nc2cc1OC [Example 356, 6-ethoxy-N-{(1R)-1-[3-(1-ethyl-1H-pyrazol-4-yl)phenyl]ethyl}-7-methoxy-2-methylquinazolin-4-amine] | 655 | > 20 | –
COc1cc2nc(C)nc(NC(C)c3ccc(-c4ccccc4-c4cn[nH]c4)s3)c2cc1OC (stereo not drawn) [Example 361, 6,7-dimethoxy-2-methyl-N-[1-{5-[2-(1H-pyrazol-4-yl)phenyl]thiophen-2-yl}ethyl]-quinazolin-4-amine] | 2460 | > 20 | –
Cc1nc(N[C@H](C)c2cccc(Cl)c2)c2cc(Br)ccc2n1 [Example 363, 6-bromo-N-[(1R)-1-(3-chlorophenyl)ethyl]-2-methylquinazolin-4-amine] | 12400 | > 20 | –
COc1cc2nc(C)nc(NC(C)c3ccc(-c4ccccc4CNC4CCCC4)s3)c2cc1OC (stereo not drawn) [Example 364, N-[1-(5-{2-[(cyclopentylamino)methyl]phenyl}thiophen-2-yl)ethyl]-6,7-dimethoxy-2-methylquinazolin-4-amine] | 129 | > 20 | –
COc1cc2nc(C)nc(NC(C)c3ccc(-c4ccccc4CNCc4ccccc4)s3)c2cc1OC (stereo not drawn) [Example 365, N-[1-(5-{2-[(benzylamino)methyl]phenyl}thiophen-2-yl)ethyl]-6,7-dimethoxy-2-methylquinazolin-4-amine] | 469 | > 20 | –
